The values that follow come from patent US20070010458A1, “Drugs for the arthritis treatment” (priority 2002, published 2007).

Series [1] relates to TGFβ1 production in cellular chondrocyte cultures. The experiment in a line: Stimulation of TGFβ1 production in chondrocyte cultures (CCL-64 growth inhibition bioassay of conditioned medium). Format: cell-based. To be noted: calf chondrocyte primary cultures, compound 10^−5 M, 24 hours; untreated control = 100. On the procedure: The primary cultures have been kept in a DMEM culture medium (Dulbecco's modified Eagle medium) (high glucose) containing bovine fetal serum (10% vol.) and antibiotics at 37° C. and in air/CO2 atmosphere (95%/5% vol.) until reaching the culture confluence. A cell sample is kept as a control and not treated with the tested compounds.
At the end the cells have been washed 3 times with a medium free from serum and added with BSA (bovine serum albumin, 200 μg/ml) for 5, 30 and 60 minutes respectively and then incubated in a medium devoid of serum (1 ml) for further 6 hours. The conditioned medium has been collected, centrifuged and kept at −70° C. until the use.
Before the experiment, 0.5 ml of cellular culture supernatant have been acidified with HCl (0.1 ml, 1 N) and incubated at room temperature for 10 min, then neutralized with NaOH/HEPES (0.1 ml NaOH 1.2N/0.5 M).
CCL-64 cellular cultures lines in a proliferative state have been prepared as described in Jennings J. C., J. Cell. Physiol.
At the twentieth hour ^3H-timidine (0.5 μCi/ml), a cellular proliferation marker, which is incorporated in the DNA of the new cells has been added to the cultures. The cultures have then been incubated for 4 hours.
At the end the cells have been cold fixed (5° C.) with trichloroacetic acid 5% v/v, washed with the same solution and dissolved in NaOH (0.1 N). […] From the amount of incorporated timidine it is shown the amount of TGF-β1. The data reported in Table 1 are expressed in percentage of TGFβ1 produced in the samples treated with the tested compounds, compared with the untreated control.

Series [2] deals with IL-6 release in human monocytes. As to the kind of experiment: IL-6 release in human monocytes (ex-vivo study after oral subacute treatment). To be noted: healthy subjects, 100 mg twice a day oral for seven days; monocytes 4 hours after last treatment, 10 μg/ml endotoxin 24 hours, ELISA; placebo = 100. On the procedure:
Twenty-four healthy subjects of both sexes were enrolled and randomised into three groups of 8 subjects each. Each group was administered as it follows: • placebo: vehicle (0.5% aqueous suspension of carboxymethyl cellulose); • flurbiprofen: 100 mg twice a day; • NO-flurbiprofen: 100 mg twice a day; the compound was prepared as described in example F1. The treatment lasted seven consecutive days (oral subacute treatment).
Monocytes from whole blood samples obtained before and 4 hours after the last treatment were prepared. Monocytes were extracted by positive selection using paramagnetic beads loaded with anti-CD11 antibody. Cells were then incubated with 10 μg/ml endotoxin for 24 hours, and IL-6 released in cell supernatant measured by ELISA assay.
Results are given as % in the confront of IL-6 release obtained in the placebo group.

Series [3] deals with IL-6 release in mouse spleen lymphocytes. The experiment in a line: IL-6 release in mouse spleen lymphocytes (in vitro, ELISA). Type of series: cell-based. To be noted: 10 μg/ml endotoxin, compound 50 μM, 24 hours, placebo = 100. As for the experimental part: (§1) Spleen lymphocytes were prepared as it follows. Mice were killed by an overdose of ether, and spleens were collected and maintained in a sterile RPMI medium (Sigma-Aldrich) containing 0.5% (vol/vol) L-glutamine and 0.5% (vol/vol) sterile endotoxin-free fetal calf serum (FCS). The spleens were opened and the content (whole cells) collected and diluted with RPMI.
(§2) After repeated washings, cells were suspended in 10 ml of RPMI containing 1% (vol/vol) streptomycin and 1% (vol/vol) penicillin. The suspension was then incubated at 37° C. for 24 hours, in an O2/CO2 atmosphere (95%/5% v/v). Monocytes were eliminated by adhesion, and lysis of red cells was obtained by suspension in a solution 0.15 mol/liter NH4Cl and 1 mmol/liter KHCO3. The resulting lymphocytes were resuspended in RPMI-FCS, incubated for 30 minutes at 37° C. with anti-FAS, anti-FASL, or anti-IL2 receptor monoclonal antibodies, and then washed twice with RPMI-FCS. Cells were then incubated with the FITC-conjugated secondary antibody for 30 mins at 4° C., washed twice, and resuspended in PBS/formaldehyde (0.5%). Control samples were treated with the FITC-conjugated secondary antibody only. Stained cells were analysed on a flow cytofluorimeter. Cells were gated using forward vs side scatter to exclude dead cells and debris.
(§3) Cells were transferred in plate and then 10 μg/ml endotoxin and each of the following compounds at a concentration of 50 μM added: • Placebo (no compound added); • Flurbiprofen; • NO-Flurbiprofen; the compound was prepared as described in ex. F1, above; • Indomethacin; • NO-indomethacin; the compound was prepared as described in the example on page 45 of WO 98/09948; • then it was incubated for 24 hours • IL-6 and TGF-β released in cell supernatant was measured by ELISA assay, taking as 100% release that of placebo group.

Series [4] concerns TGF-β release in mouse spleen lymphocytes. The experiment in a line: TGF-β release in mouse spleen lymphocytes (in vitro, ELISA). Type of series: cell-based. To be noted: 10 μg/ml endotoxin, compound 50 μM, 24 hours, placebo = 100. As for the experimental part:
as §1, §2, §3

In another series the test system is human chondrocytes. As to the kind of experiment: Cell proliferation of TNFα-treated human chondrocytes ([3H]-thymidine incorporation). Type of series: cell-based. Conditions: TNFα 80 ng/ml, compound 100 μM, 24 hours, control without TNFα = 100, vehicle + TNFα = 50. On the procedure:
(§4) Human chondrocytes were isolated by collagenase digestion from knee cartilage collected from patients undergoing knee replacement surgery. Only primary culture was used to avoid phenotype change of human chondrocytes. TNFα (80 ng/ml) was added to all but control cells. Test compounds were dissolved at a concentration 0.02% (w/v) in DMSO (vehicle).
(§5) The test compounds were incubated with cells at a 100 μM concentration for 24 hours.
Cell proliferation was determined by measuring [^3H]-thymidine incorporated into newly synthesized DNA. Cell viability was assessed by MTS assay kit.

The test system of series [5] is proteoglycan synthesis in human chondrocytes. The experiment in a line: Proteoglycan synthesis in TNFα-treated human chondrocytes ([35S]-sulfate incorporation). Type of series: cell-based. To be noted: TNFα 80 ng/ml, compound 100 μM, 24 hours, control without TNFα = 100, vehicle + TNFα = 22. As for the experimental part: as §4, §5
Proteoglycan synthesis was determined by [^35S]-sulfate incorporation. Cells and supernatant were extracted with 4M guanidinium chloride and purified by Sephadex colums chromatography. The amount of [^35S]-sulfate was measured by liquid scintillation counter. Results were normalized by the amount of Dna in the sample and expressed as CPM/μg DNA (CPM=count per minute).

The test system of another series is type II collagen mRNA. As to the kind of experiment: Type II collagen mRNA steady-state levels in human articular chondrocytes. Conditions: human articular chondrocytes in hypoxia (5% v/v O2), with or without IL-1β, compound 10^−5M, 48 h. Type of series: cell-based. As for the experimental part: The steady-state levels of mRNA for type II collagen and TGF-β type II receptor (TβRII) was evaluated in human articular chondrocytes (HAC), cultured in hypoxia (5% v/v O2). The cells were treated or not with interleukin-1β (IL-1β) an agent favouring OA pathology, and NO-NSAIDs, or the corresponding NSAIDs at 10^−5M for 48 h.

Series [6] can be described thus: Hepatic tolerability in rats (plasma AST, ALT, bilirubin). Conditions: i.p., NO-paracetamol 1.4 g/Kg or paracetamol 1.16 g/Kg, plasma 6 hours after administration, % of control group (100%). Format: in vivo. As for the experimental part:
Groups of No. 10 rats have been treated i.p. with NO-paracetamol (1.4 g/Kg i.p.) or with paracetamol (1.16 g/Kg) or with the carrier (0.9% w/v NaCl containing 20% v/v di tween-20) (control group).
After 6 hours from the administration, the animals have been sacrificed, the blood has been collected and the plasma analyzed to determine the aspartate aminotransferase (AST) and alanine aminotransferase (ALT) and bilirubin concentrations. The results are reported in Table 2 and have been expressed in pecentage with respect to the values obtained in the control group (100%).

For the molecule `CC(=O)Oc1ccccc1C(=O)O` [Aspirin], the “% of produced TGFβ1” value in series [1] was 150%.
Regarding `CC(C(=O)O)c1ccc(-c2ccccc2)c(F)c1` (stereo not drawn) [Flurbiprofen], the “% of produced TGFβ1” value in series [1] was 120%. In addition, the “IL-6 release % in the confront of placebo” value (“IL-6 release %” for short) in series [2] and in series [3] was 100% each time. Also, in series [4], the “TGF-β release % in the confront of placebo” value (“TGF-β release %” for short) amounted to 115%. In addition, in the series on human chondrocytes, the “Cell proliferation % in the confront of control” value is recorded as 53%. Further, the “Proteoglycan synthesis % in the confront of control” value (from here on “Proteoglycan synthesis %”) in series [5] was determined as 26%. Moreover, in the series on type II collagen mRNA, the “Increase of type II collagen mRNA levels” value was “no significant effect”.
Consider `CC(C)Cc1ccc(C(C)C(=O)O)cc1` (stereo not drawn) [Ibuprofen], for which, in the series on human chondrocytes, the “Cell proliferation % in the confront of control” value is recorded as 48%. Also, the “Proteoglycan synthesis %” value in series [5] is 24%.
Take `COc1ccc2c(c1)c(CC(=O)O)c(C)n2C(=O)c1ccc(Cl)cc1` [Indomethacin]: the “IL-6 release %” value in series [3] amounted to 90%. Besides, in series [4], the “TGF-β release %” value is listed as 70%.
`CC(=O)Oc1ccccc1C(=O)Oc1cccc(CO[N+](=O)[O-])c1` [NO-Aspirin, 2-acetyloxybenzoic acid 3-nitrooxymethyl phenyl ester]: in series [1], the “% of produced TGFβ1” value is 600%.
Turning to `O=C(Cc1ccccc1Nc1c(Cl)cccc1Cl)OCCCCO[N+](=O)[O-]` [NO-Diclofenac, 2-[(2,6-dichlorophenyl)amino]benzenacetic acid 4-nitrooxybutyl ester], the “% of produced TGFβ1” value in series [1] amounted to 550%.
With `CC(C(=O)OCCCCO[N+](=O)[O-])c1ccc(-c2ccccc2)c(F)c1` (stereo not drawn) [NO-Flurbiprofen, 2-fluoro-alpha-methyl[1,1′-biphenyl]-4-acetic acid 4-nitrooxybutylester], the “% of produced TGFβ1” value in series [1] turned out to be 650%. Besides, in series [3], the “IL-6 release %” value was determined as 10%. In addition, in series [4], the “TGF-β release %” value came out at 150%. In addition, in series [5], the “Proteoglycan synthesis %” value came out at 70%. In addition, in the series with type II collagen mRNA, the “Increase of type II collagen mRNA levels” value was “more than 100%”.
Take `CC(=O)Nc1ccc(OC(=O)CCCO[N+](=O)[O-])cc1` [NO-Paracetamol, 4-nitrooxybutanoic acid 4-acetylaminophenylester]: the “% of produced TGFβ1” value in series [1] was found to be 350%. In series [6], the AST came out at 160% and the Bilirubin was 136%.
Take `COc1ccc2c(c1)c(CC(=O)Oc1cccc(CO[N+](=O)[O-])c1)c(C)n2C(=O)c1ccc(Cl)cc1` [NO-indomethacin, 1-(4-Chlorobenzoyl)-5-methoxy-2-methyl-1H-indole-3-acetic acid 3-(nitrooxymethyl)phenyl ester]: the “IL-6 release %” value in series [3] turned out to be 20%. Moreover, the “TGF-β release %” value in series [4] stood at 130%.
Take `CC(=O)Nc1ccc(O)cc1` [Paracetamol]: in series [6], the ALT is given as 171%, the AST was 330% and the Bilirubin was 200%.
